Residues, ends and D or L forms follow the SMILES beside them.
Key:
[1] = molecular target: T1, Solute carrier organic anion transporter family member 1B3 (Homo sapiens, UniProt Q9NPD5); conditions: chinese hamster, cho, 10 µM
T1 sequence (Q9NPD5 whole entry): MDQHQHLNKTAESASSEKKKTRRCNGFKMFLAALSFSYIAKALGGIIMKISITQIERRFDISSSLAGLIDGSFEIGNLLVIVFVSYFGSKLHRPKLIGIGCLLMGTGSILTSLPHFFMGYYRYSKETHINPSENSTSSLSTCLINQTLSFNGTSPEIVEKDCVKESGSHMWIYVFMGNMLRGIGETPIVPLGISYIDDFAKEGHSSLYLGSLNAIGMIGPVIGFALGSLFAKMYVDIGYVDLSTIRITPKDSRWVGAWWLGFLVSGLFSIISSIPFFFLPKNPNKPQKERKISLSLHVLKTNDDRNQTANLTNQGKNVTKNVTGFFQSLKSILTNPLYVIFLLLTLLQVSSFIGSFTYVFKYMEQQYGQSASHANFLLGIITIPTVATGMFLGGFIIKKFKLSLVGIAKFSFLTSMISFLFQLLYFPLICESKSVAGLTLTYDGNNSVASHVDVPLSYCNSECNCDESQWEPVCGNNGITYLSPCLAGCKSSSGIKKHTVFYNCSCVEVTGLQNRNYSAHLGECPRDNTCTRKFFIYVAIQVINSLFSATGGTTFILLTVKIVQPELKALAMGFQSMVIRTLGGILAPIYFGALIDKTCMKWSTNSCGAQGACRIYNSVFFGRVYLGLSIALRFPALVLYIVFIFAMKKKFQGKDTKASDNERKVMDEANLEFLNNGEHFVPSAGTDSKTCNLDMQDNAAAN

[2] = molecular target: T2, Solute carrier organic anion transporter family member 1B1 (Homo sapiens, UniProt Q9Y6L6); conditions: chinese hamster, cho, 10 µM
T2 sequence (Q9Y6L6 whole entry): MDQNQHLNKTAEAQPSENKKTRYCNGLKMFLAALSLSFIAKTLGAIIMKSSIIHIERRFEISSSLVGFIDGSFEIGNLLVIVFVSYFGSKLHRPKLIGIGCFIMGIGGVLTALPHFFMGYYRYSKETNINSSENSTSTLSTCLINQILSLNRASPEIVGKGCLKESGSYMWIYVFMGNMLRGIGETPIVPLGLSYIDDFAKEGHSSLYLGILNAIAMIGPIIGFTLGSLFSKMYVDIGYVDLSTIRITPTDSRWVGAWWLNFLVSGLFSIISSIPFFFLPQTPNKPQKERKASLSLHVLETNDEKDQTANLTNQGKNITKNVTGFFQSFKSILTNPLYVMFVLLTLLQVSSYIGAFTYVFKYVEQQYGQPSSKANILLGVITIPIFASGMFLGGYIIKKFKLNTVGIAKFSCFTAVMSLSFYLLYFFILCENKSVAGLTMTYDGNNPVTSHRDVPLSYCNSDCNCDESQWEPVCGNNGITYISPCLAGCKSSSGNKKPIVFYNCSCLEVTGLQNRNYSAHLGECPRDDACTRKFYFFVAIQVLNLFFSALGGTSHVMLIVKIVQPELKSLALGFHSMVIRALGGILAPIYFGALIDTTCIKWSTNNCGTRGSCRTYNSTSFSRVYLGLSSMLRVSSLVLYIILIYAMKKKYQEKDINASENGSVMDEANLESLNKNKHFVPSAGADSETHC

Structure (SMILES) | residual activity [1] | residual activity [2]
COC1=C(OC)C(=O)C(C/C=C(\C)CC/C=C(\C)CC/C=C(\C)CC/C=C(\C)CC/C=C(\C)CC/C=C(\C)CC/C=C(\C)CC/C=C(\C)CC/C=C(\C)CCC=C(C)C)=C(C)C1=O [UBIDECARENONE] | 137.7% | 118.6%
O=c1ccc2ccc(O)cc2o1 [UMBELLIFERONE] | 76.49% | 26.71%
NC(N)=O [UREA] | 105.9% | 87.46%
COc1ccc(C(=O)CC(=O)O)c2c1C=CC(C)(C)O2 [URSINOIC ACID] | 105.2% | 116%
C[C@H](CCC(=O)O)[C@H]1CC[C@H]2[C@@H]3CC[C@@H]4CCCC[C@]4(C)[C@H]3CC[C@]12C [URSOCHOLANIC ACID] | 102.7% | 98.45%
C[C@H](CCC(=O)O)[C@H]1CC[C@H]2[C@@H]3[C@@H](O)C[C@@H]4C[C@H](O)CC[C@]4(C)[C@H]3CC[C@]12C [URSODIOL] | 149.7% | 70.93%
C[C@H]1[C@H](C)CC[C@]2(CO)CC[C@]3(C)C(=CC[C@@H]4[C@@]5(C)CC[C@H](O)C(C)(C)[C@@H]5CC[C@]43C)[C@H]12 [UVAOL] | 107.5% | 121.5%
CC(C)[C@H](N)C(=O)OCCOCn1cnc2c(=O)[nH]c(N)nc21.Cl [VALACYCLOVIR HYDROCHLORIDE] | 80.91% | 68.57%
Cc1onc(-c2ccccc2)c1-c1ccc(S(N)(=O)=O)cc1 [VALDECOXIB] | 94.41% | 120.4%
CCCCC(=O)Oc1ccccc1C(=O)O [VALERYL SALYCILATE] | 92.91% | 78.97%
CCCC(CCC)C(=O)[O-].[Na+] [VALPROATE SODIUM] | 125.1% | 90.61%
CC(C)[C@H](N)C(=O)N[C@@H](Cc1c[nH]c2ccccc12)C(=O)O [VALYLTRYPTOPHAN] (H-Val-Trp-OH) | 102.8% | 100.2%
CN[C@H](CC(C)C)C(=O)N[C@H]1C(=O)N[C@@H](CC(N)=O)C(=O)N[C@H]2C(=O)N[C@H]3C(=O)N[C@H](C(=O)N[C@H](C(=O)O)c4cc(O)cc(O)c4-c4cc3ccc4O)[C@H](O)c3ccc(c(Cl)c3)Oc3cc2cc(c3O[C@@H]2O[C@H](CO)[C@@H](O)[C@H](O)[C@H]2O[C@H]2C[C@](C)(N)[C@H](O)[C@H](C)O2)Oc2ccc(cc2Cl)[C@H]1O.Cl [VANCOMYCIN HYDROCHLORIDE] | 103.2% | 99.99%
Nc1c2c(nc3ccccc13)CCCC2O.O=C(O)/C=C\C(=O)O (configuration not stated) [VELNACRINE MALEATE] | 96.75% | 103.3%
COc1ccc(C(=O)O)cc1OC [VERATRIC ACID] | 106.9% | 111.3%
COc1ccc(C(=O)O[C@H]2CC[C@@]3(C)[C@@H]4CC[C@H]5[C@]6(O)C[C@H](O)[C@@]7(O)[C@@H](CN8C[C@@H](C)CC[C@H]8[C@@]7(C)O)[C@]6(O)C[C@@]53O[C@]24O)cc1OC [VERATRIDINE] | 133.7% | 82.28%
Cl.OC1CCCCC1N1CCC(c2ccccc2)CC1 (configuration not stated) [VESAMICOL HYDROCHLORIDE] | 101.2% | 64.34%
C=CC(N)CCC(=O)O (configuration not stated) [VIGABATRIN] | 94.41% | 78.69%
CC[C@]12CCCN3CCc4c(n(c5ccccc45)C(=O)C1)[C@@H]32 [VINBURNINE] | 115.3% | 97.38%
CC[C@]12CCCN3CCc4c(n(c5ccccc45)[C@@](O)(C(=O)OC)C1)[C@@H]32 [VINCAMINE] | 88.88% | 72.87%
CCOC(=O)C1=C[C@]2(CC)CCCN3CCc4c(n1c1ccccc41)[C@@H]32 [VINPOCETINE] | 109.4% | 167.7%
COc1cc(C/C=C/c2ccccc2)c(OC)cc1O [VIOLASTYRENE] | 47.88% | 27.49%
COc1c2ccoc2cc2oc(C)cc(=O)c12 [VISNAGIN] | 98.15% | 127.2%

Structure (SMILES) | residual activity [1] | residual activity [2]
CCCCCCCCCCCCCCCC(=O)OC/C=C(C)/C=C/C=C(C)/C=C/C1=C(C)CCCC1(C)C [VITAMIN A PALMITATE] | 85.92% | 77.04%
COC(=O)/C(=C1/OC(=O)C(c2ccccc2)=C1O)c1ccccc1 [VULPINIC ACID] | 83.34% | 57.14%
CC(=O)CC(c1ccccc1)c1c(O)c2ccccc2oc1=O (configuration not stated) [WARFARIN] | 66.67% | 122.2%
O=c1c2ccccc2oc2ccccc12 [XANTHONE] | 131.5% | 123.7%
Nc1nc(=O)c2[nH]c(=O)cnc2[nH]1 [XANTHOPTERIN] | 104.7% | 104.4%
COc1cc(O)c(C(C)=O)c(OC)c1 [XANTHOXYLIN] | 104.3% | 128.7%
O=C(O)c1cc(O)c2cccc(O)c2n1 [XANTHURENATE] | 99.4% | 115.8%
CC1(C)C=Cc2cc3ccc(=O)oc3cc2O1 [XANTHYLETIN] | 85.95% | 75.53%
Cc1cccc(C)c1N=C1NCCCS1 [XYLAZINE] | 83.59% | 64.31%
COC(=O)CC1C(C)(C)C(OC(C)=O)[C@@H]2[C@@H](OC(C)=O)[C@]34O[C@@]2(O)[C@]1(C)C3CC[C@]1(C)C4=CC(=O)O[C@H]1c1ccoc1 (some centres not stated) [XYLOCARPUS A] | 9.764% | 22.54%
Cc1cc(C(C)(C)C)cc(C)c1CC1=NCCN1.Cl [XYLOMETAZOLINE HYDROCHLORIDE] | 99.17% | 86.29%
CCCOc1ccccc1-c1nc2nn[nH]c2c(=O)[nH]1 [ZAPRINAST] | 86.99% | 98.85%
C[C@H]1CCCC(=O)CCC/C=C/c2cc(O)cc(O)c2C(=O)O1 [ZEARALENONE] | 91.51% | 55.9%
Cc1cn([C@H]2C[C@H](N=[N+]=[N-])[C@@H](CO)O2)c(=O)[nH]c1=O [ZIDOVUDINE] | 95.75% | 134%
CN(C)CCc1c[nH]c2ccc(C[C@H]3COC(=O)N3)cc12 [ZOLMITRIPTAN] | 102.5% | 95.98%
Cc1ccc(-c2nc3ccc(C)cn3c2CC(=O)N(C)C)cc1 [ZOLPIDEM] | 78.05% | 177.4%
Cc1cc(CC(=O)[O-])n(C)c1C(=O)c1ccc(Cl)cc1.O.O.[Na+] [ZOMEPIRAC SODIUM] | 118.7% | 132.9%
N#C/C(=C\c1cccc(O)c1)C(=O)O [alpha-CYANO-3-HYDROXYCINNAMIC ACID] | 89.69% | 102.6%
N#C/C(=C\c1ccc(O)cc1)C(=O)O [alpha-CYANO-4-HYDROXYCINNAMIC ACID] | 105.3% | 112.8%
Cc1c(C)c2c(c(C)c1O)CCC(C)(CCCC(C)CCCC(C)CCCC(C)C)O2 (stereo not drawn) [alpha-TOCHOPHEROL] | 84.17% | 85.48%
CC(=O)O[C@H]1CC[C@]2(C)[C@H]3CC=C4[C@@H]5CC(C)(C)CC[C@]5(C)CC[C@@]4(C)[C@]3(C)CC[C@H]2C1(C)C [beta-AMYRIN ACETATE] | 110% | 113%
CC1(C)CC[C@]2(C)CC[C@]3(C)C(=CC[C@@H]4[C@@]5(C)CC[C@H](O)C(C)(C)[C@@H]5CC[C@]43C)[C@@H]2C1 [beta-AMYRIN] | 75.14% | 65.86%
CC12CCCC(O)(C1)C1CC(C)(C)C1CC2 (stereo not drawn) [beta-CARYOPHYLLENE ALCOHOL] | 113% | 117.4%

Source: ChEMBL document CHEMBL3039007, “Structure-based identification of OATP1B1/3 inhibitors” (Mol Pharmacol, 2013)
